Results from patent EP0287988A2, “Pyrrole aldehydes, their preparation and use” (CASSELLA Aktiengesellschaft, priority 1987, dated 1988).

Test system: scopolamininduzierten Amnesie
Experiment: Passive avoidance test, scopolamine-induced amnesia (light-dark box, foot shock, latency after 24 h)
Type: in vivo, Mäuse
Conditions: male mice, scopolamine hydrobromide 3 mg/kg i.p.
Protocol: Die Testapparatur ist eine Hell-Dunkel-Box mit elektrifizierbarem Gitterboden im dunklen Teil.
55 Minuten nach Verabreichung von Kontroll-und Präparatinjektion werden unerfahrene männliche Mäuse mit Scopolaminhydrobromid (3 mg/kg i.p.) behendelt. 5 Minuten später werden die Mäuse in den hellen Teil der Box gesetzt. Nach dem Überwechseln in den drunklen Teil der Box erhalten sie einen ihnen unangenehmen elektrischen Fußschock. Nach 24 Stunden wird jede Maus einmal in den hellen Teil der Testapparatur gesetzt und die Verweildauer (max. 180 sec.) gemessen. […] […] Die Ergebnisse sind in Tabelle 2 angegeben.

Molecule | Prozentuale Abschwächung der scopolamininduzierten Amnesie (Dosis 30 mg/kg p.o., latency measured after 24 h (max. 180 sec)) | prozentuale Abschwächung (Dosis 60 mg/kg p.o.)
1-(Aminocarbony(methyl)-2,5-dimethylpyrrol-3-aldehyd [Beispiel 13] | 146% | –
NC(=O)CN1CCCC1=O [Piracetam] | – | 100%
